From US10450549B2, “Aryloxyphenoxypropionate tolerance in turfrgass species and use of AAD1 as a selectable marker” (Dow AgroSciences, LLC, priority 2004, dated 2019)
Several values for one entry are separate records, joined by “and”; a condition that tells them apart may be missing. Equal values may be shown once.

Legend:
[1] = test system: Non-transformed Hi-II callused suspension tissue; experiment: Dose response of non-transformed maize callus tissue; format: cell-based; conditions: haloxyfop 400 nM
[2] = test system: AAD1 (v3) event lines; experiment: Field tolerance of pDAB3404 T1 corn to quizalofop and 2,4-D: AAD1 (v3) events; format: in vivo; conditions: 140 g ae/ha
Excerpt: Two field trials were established at field stations in Hawaii and Indiana. […] The hybrid Hi-II×5XH571 is of the same parentage as the AAD1 (v3) event lines. The hybrid Croplan 585SR is a sethoxydim resistant line.
The experimental design was a split-plot with four replications. The main plot was herbicide treatment and the sub-plot was AAD1 (v3) event or comparison hybrid. Plots were one row by 3.7 meters with approximately twenty-five seeds planted in each row. For AAD1 events, seeds from a different lineage within the event were planted in each replicate.
Glufosinate at 560 g ai/ha was applied to AAD1 (v3) plots at the V2 stage to eliminate non-transformed plants. […] Treatments were applied using backpack broadcast boom equipment delivering 187 L/ha carrier volume at 130-200 kpa pressure.
Quizalofop treated plots were visually assessed for crop injury at one and three weeks after application (WAA) using a 0-100% scale, where 0 equals no injury and 100 equals complete death.

[3] = test system: T2 lineages from 3404 transformations; experiment: Quizalofop tolerance with respect to AAD1 (v3) expression in T2 3404 lineages; format: in vivo, corn
[4] = test system: ‘Justice’ tall fescue transgenic events; experiment: Quizalofop on AAD1 ‘Justice’ tall fescue plants; format: in vivo; conditions: written in present tense
Method: ‘Justice’ tall fescue transgenic plants events were selected on tissue culture media containing quizalofop, and confirmed via PCR amplification of an inserted T-strand.
A growth medium was prepared by mixing Promix® and sand in a 2 to 1 ratio. The medium was contained in plastic pots. When required to maintain plant health, a fungicide, insecticide, and/or other chemical or physical treatment was applied to stock plants. The plants were maintained in a greenhouse and treated with fertilizer and growth supplements as needed and water was added on a regular basis. Supplemental lighting was provided.
The selected T0 plants are sprayed with quizalofop at rates ranging in concentration, beyond the typical in field usage rate. This rate structure is selected based on the GR90 (herbicide rate which produces 90% injury and/or growth inhibition) and the rate that would also control susceptible monocot weed species. […]
The treated plants and control plants are placed in a greenhouse and watered by sub-irrigation to prevent wash-off of the test compounds. At various times after application, the condition of the test plants as compared with that of the untreated plants is determined visually and scored on a scale of 0 to 100 percent, where 0 corresponds to no injury or growth inhibition, and 100 corresponds to complete kill. […]

[5] = test system: F1 progeny of ‘Crenshaw’ creeping bentgrass pDAB5042 events; experiment: AAD1 whole-plant selectable marker: F1 progeny of Crenshaw pDAB5042 events x elite lines, injury to 240 g ae/ha quizalofop-p-ethyl; format: in vivo
Method: The use of AAD1 as a selectable marker for quizalofop selection agent was tested with an “F1” generation of plants that were produced by crossing selected single copy pDAB5042 ‘Crenshaw’ events with non-transgenic elite lines (lines 3425-12, 3427-2, or 3431-1). ‘Crenshaw’ events were vernalized in a growth chamber; elite line crossing partners were field vernalized. Nearing the time of bloom, a non-transgenic plant at the same reproductive stage was moved into the growth chamber in close proximity of the pDAB5042 event. Panicles were secured together with a twist tie, and both panicles were bagged together and labeled. Alternatively, to increase the number of crosses, some panicles were excised and secured to an intact panicle and bagged. At seed harvest, individual seed heads were removed and packaged individually.
Seed were sown on flats containing Metromix™, and germinated in a growth chamber. All emerged seedlings were transplanted into growth medium prepared by mixing Promix® and sand in a 2 to 1 ratio. The medium was contained in plastic pots with a surface area of 84.6 square centimeters (cm^2). Plants were maintained in a greenhouse until established. Leaf tissue from each seedling was harvested for molecular analysis, and tissues were probed for the presence of AAD1. After tissue harvest, the established plants were trimmed to simulate mowing.
The same two plants were the only plants testing positive for one copy of AAD1.

## CC(Oc1ccc(Oc2ncc(C(F)(F)F)cc2Cl)cc1)C(=O)O (stereo not drawn) [haloxyfop]
[1]
  non-transgenic corn callus tissue growth: inhibited

## C[C@@H](Oc1ccc(Oc2cnc3cc(Cl)ccc3n2)cc1)C(=O)O [quizalofop]
[2]; HI, 3404.001
  % Injury 3 WAA (0-100 scale): 25%
[2]; HI, 3404.006
  % Injury 3 WAA (0-100 scale): 0%
[2]; HI, 3404.013
  % Injury 3 WAA (0-100 scale): 0%
[2]; HI, 3404.017
  % Injury 3 WAA (0-100 scale): 0%
[2]; HI, 3404.020
  % Injury 3 WAA (0-100 scale): 0%
[2]; HI, 3404.022
  % Injury 3 WAA (0-100 scale): 0%
[2]; HI, 3404.025
  % Injury 3 WAA (0-100 scale): 0%
[2]; HI, 3404.027
  % Injury 3 WAA (0-100 scale): 0%
[2]; HI, 3404.031
  % Injury 3 WAA (0-100 scale): 0%
[2]; HI, 3404.033
  % Injury 3 WAA (0-100 scale): 0%
[2]; HI, 3404.036
  % Injury 3 WAA (0-100 scale): 0%
[2]; HI, 3404.044
  % Injury 3 WAA (0-100 scale): 0%
[2]; HI, 3404.050
  % Injury 3 WAA (0-100 scale): 0%
[2]; HI, 3404.053
  % Injury 3 WAA (0-100 scale): 0%
[2]; HI, 3404.074
  % Injury 3 WAA (0-100 scale): 0%
[2]; HI, 3404.082
  % Injury 3 WAA (0-100 scale): 0%
[2]; IN, 3404.001
  % Injury 3 WAA (0-100 scale): 25%
[2]; IN, 3404.006
  % Injury 3 WAA (0-100 scale): 0%
[2]; IN, 3404.013
  % Injury 3 WAA (0-100 scale): 0%
[2]; IN, 3404.017
  % Injury 3 WAA (0-100 scale): 0%
[2]; IN, 3404.020
  % Injury 3 WAA (0-100 scale): 0%
[2]; IN, 3404.022
  % Injury 3 WAA (0-100 scale): 0%
[2]; IN, 3404.025
  % Injury 3 WAA (0-100 scale): 0%
[2]; IN, 3404.027
  % Injury 3 WAA (0-100 scale): 0%
[2]; IN, 3404.031
  % Injury 3 WAA (0-100 scale): 0%
[2]; IN, 3404.033
  % Injury 3 WAA (0-100 scale): 0%
[2]; IN, 3404.036
  % Injury 3 WAA (0-100 scale): 0%
[2]; IN, 3404.044
  % Injury 3 WAA (0-100 scale): 0%
[2]; IN, 3404.050
  % Injury 3 WAA (0-100 scale): 0%
[2]; IN, 3404.053
  % Injury 3 WAA (0-100 scale): 0%
[2]; IN, 3404.074
  % Injury 3 WAA (0-100 scale): 0%
[2]; IN, 3404.082
  % Injury 3 WAA (0-100 scale): 0%
[3]
  highest level tested at which corn expressing AAD1 (v3) is protected from injury: 2,240 g/ha
[4]
  injury of tall fescue events compared to non-transgenic control plants: less injury

## CCOC(=O)[C@@H](C)Oc1ccc(Oc2cnc3cc(Cl)ccc3n2)cc1 [quizalofop-p-ethyl]
[5]; F1 progeny of 3431-1 × pDAB5042 Event 162
  Visual Injury 39 DAA: 100%
[5]; F1 progeny of NT6 × pDAB5042 Event 186
  Visual Injury 39 DAA: 95%
[5]; individual F1 progeny of 3427-2 × pDAB5042 Event 186
  Visual Injury 39 DAA: 60% and 80% and 95% (4×) and 90% and 99% (3×) and 85% and 100% (2×)
[5]; individual F1 progeny of 3431-1 × pDAB5042 Event 127
  Visual Injury 39 DAA: 90% (4×) and 95% (4×) and 100% (6×) and 99%
[5]; individual F1 progeny of 3431-1 × pDAB5042 Event 186
  Visual Injury 39 DAA: 100% (6×) and 99% (10×) and 95% (8×) and 80% (2×) and 90%
[5]; individual F1 progeny of pDAB5042 Event 127 × 3431-1
  Visual Injury 39 DAA: 99% (3×) and 95%
[5]; individual F1 progeny of pDAB5042 Event 144 × 3425-12
  Visual Injury 39 DAA: 99% and 100%
[5]; individual F1 progeny of pDAB5042 Event 186 × 3425-12 (asterisk: AAD1 positive)
  Visual Injury 39 DAA: 0%
[5]; individual F1 progeny of pDAB5042 Event 186 × 3431-1
  Visual Injury 39 DAA: 99% (4×) and 100% (2×) and 90%
[5]; individual progeny of NT6 × 3427-2
  Visual Injury 39 DAA: 90% and 100% (2×)
